PubChem BioAssay AID330 (DTP/NCI, 2004)
“And” between values parts separate entries of the source, which are not always exact repeats. Equal entries are not always repeated. Inconclusive results and toxic doses are left out.

System: P388 leukemia ip, CD2F1 mice, survival T/C
Assay: NCI In Vivo Anticancer Drug Screen. Data for tumor model P388 Leukemia (intraperitoneal) in CD2F1 (CDF1) mice
Settings: endpoint: median survival time, higher = longer survival
In short: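 Mice carrying the transplanted tumor received test compound or vehicle. Survival was recorded in each group, and the value is the treated-group measurement divided by that of the vehicle-treated control group.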

[1] = dose: 50.0 mg/kg/injection, schedule: Q01DX005 (ip), vehicle: saline with Tween-80
[2] = dose: 100.0 mg/kg/injection, schedule: Q01DX005 (ip), vehicle: saline with Tween-80
[3] = dose: 200.0 mg/kg/injection, schedule: Q01DX005 (ip), vehicle: saline with Tween-80
[4] = dose: 50.0 mg/kg/injection, schedule: Q01DX005 (ip), vehicle: Klucel (hydroxypropylcellulose) (HPC)

## COc1ccc(NC(=S)Nc2ccc(OCCCN3CCOCC3)cc2)cc1
dose: 100.0 mg/kg/injection, schedule: Q04DX002 (ip), vehicle: Klucel (hydroxypropylcellulose) (HPC)
  T/C: 96 % of control
dose: 200.0 mg/kg/injection, schedule: Q04DX002 (ip), vehicle: Klucel (hydroxypropylcellulose) (HPC)
  T/C: 94 % of control
dose: 400.0 mg/kg/injection, schedule: Q04DX002 (ip), vehicle: Klucel (hydroxypropylcellulose) (HPC)
  T/C: 94 % of control

## C[Si](C)(C)N1CCOC1=O
dose: 60.0 mg/kg/injection, schedule: Q01DX005 (ip), vehicle: saline with Tween-80
  T/C: 109 % of control
dose: 120.0 mg/kg/injection, schedule: Q01DX005 (ip), vehicle: saline with Tween-80
  T/C: 103 % of control
dose: 240.0 mg/kg/injection, schedule: Q01DX005 (ip), vehicle: saline with Tween-80
  T/C: 108 % of control

## Clc1cnc(Oc2ccccc2)c2ccccc12
[1]
  T/C: 104 % of control
[2]
  T/C: 103 % of control
[3]
  T/C: 88 % of control

## CN1CCCc2cccc(c2)CCC1
dose: 12.5 mg/kg/injection, schedule: Q01DX005 (ip), vehicle: Klucel (hydroxypropylcellulose) (HPC)
  T/C: 98 % of control
dose: 25.0 mg/kg/injection, schedule: Q01DX005 (ip), vehicle: Klucel (hydroxypropylcellulose) (HPC)
  T/C: 100 % of control
[4]
  T/C: 99 % of control and 95 % of control

## O=C(Nc1ccc(C2=NCCN2)cc1)C1CCC(C(=O)Nc2ccc(C3=NCCN3)cc2)CC1 (centres undefined)
dose: 100.0 mg/kg/injection, schedule: Q01DX009 (ip), vehicle: saline with Tween-80
  T/C: 227 % of control
dose: 100.0 mg/kg/injection, schedule: Q04DX003 (ip), vehicle: saline with Tween-80
  T/C: 154 % of control
dose: 200.0 mg/kg/injection, schedule: Q01DX009 (ip), vehicle: saline with Tween-80
  T/C: 209 % of control
dose: 200.0 mg/kg/injection, schedule: Q04DX003 (ip), vehicle: saline with Tween-80
  T/C: 186 % of control
dose: 264.0 mg/kg/injection, schedule: Q04DX003 (ip), vehicle: saline with Tween-80
  T/C: 213 % of control
dose: 400.0 mg/kg/injection, schedule: Q01DX009 (ip), vehicle: saline with Tween-80
  T/C: 118 % of control
dose: 400.0 mg/kg/injection, schedule: Q04DX003 (ip), vehicle: saline with Tween-80
  T/C: 231 % of control and 254 % of control
dose: 600.0 mg/kg/injection, schedule: Q04DX003 (ip), vehicle: saline with Tween-80
  T/C: 236 % of control

## O=[N+]([O-])c1ccc(SN2CCCCC2CC2CCCCC2)c([N+](=O)[O-])c1 (centres undefined)
[4]
  T/C: 105 % of control
dose: 100.0 mg/kg/injection, schedule: Q01DX005 (ip), vehicle: Klucel (hydroxypropylcellulose) (HPC)
  T/C: 98 % of control
dose: 200.0 mg/kg/injection, schedule: Q01DX005 (ip), vehicle: Klucel (hydroxypropylcellulose) (HPC)
  T/C: 96 % of control

## Oc1cccc(/C=N/N2CCc3ccccc3C2)c1
dose: 50.0 mg/kg/injection, schedule: Q01DX001 (ip), vehicle: Klucel (hydroxypropylcellulose) (HPC)
  T/C: 96 % of control
dose: 100.0 mg/kg/injection, schedule: Q01DX001 (ip), vehicle: Klucel (hydroxypropylcellulose) (HPC)
  T/C: 100 % of control
dose: 200.0 mg/kg/injection, schedule: Q01DX001 (ip), vehicle: Klucel (hydroxypropylcellulose) (HPC)
  T/C: 92 % of control

## C/C(=N\NC(=S)Nc1ccc(C(=O)O)cc1C)c1ccccn1
[1]
  T/C: 114 % of control
[2]
  T/C: 121 % of control

## O=C(O)c1cccc(/C=C/c2ccccc2)c1
[1]
  T/C: 107 % of control
[2]
  T/C: 105 % of control
[3]
  T/C: 114 % of control

## CN(C)c1ncnc2c1ncn2C1OC(CO)C(N)C1O (centres undefined)
dose: 12.5 mg/kg/injection, schedule: Q01DX009 (ip), vehicle: saline with Tween-80
  T/C: 104 % of control
dose: 12.5 mg/kg/injection, schedule: Q01DX009 (ip), vehicle: saline
  T/C: 118 % of control
dose: 25.0 mg/kg/injection, schedule: Q01DX009 (ip), vehicle: saline with Tween-80
  T/C: 113 % of control
dose: 25.0 mg/kg/injection, schedule: Q01DX009 (ip), vehicle: saline
  T/C: 119 % of control
dose: 50.0 mg/kg/injection, schedule: Q01DX009 (ip), vehicle: saline
  T/C: 117 % of control
dose: 75.0 mg/kg/injection, schedule: Q01DX009 (ip), vehicle: saline sonified
  T/C: 163 % of control
dose: 100.0 mg/kg/injection, schedule: Q04DX003 (ip), vehicle: saline sonified
  T/C: 119 % of control
dose: 200.0 mg/kg/injection, schedule: Q04DX003 (ip), vehicle: saline sonified
  T/C: 109 % of control
dose: 400.0 mg/kg/injection, schedule: Q04DX003 (ip), vehicle: saline sonified
  T/C: 95 % of control

## COc1ccc2nc3c(C)c4ccn(Cc5ccc(I)cc5)cc4c(C)c3c2c1
dose: 13.5 mg/kg/injection, schedule: Q04DX002 (ip), vehicle: saline with Tween-80
  T/C: 116 % of control
dose: 27.0 mg/kg/injection, schedule: Q04DX002 (ip), vehicle: saline with Tween-80
  T/C: 113 % of control
dose: 54.0 mg/kg/injection, schedule: Q04DX002 (ip), vehicle: saline with Tween-80
  T/C: 122 % of control
dose: 108.0 mg/kg/injection, schedule: Q04DX002 (ip), vehicle: saline with Tween-80
  T/C: 105 % of control
